Data reported in PMC9738179, “New Nucleic Base-Tethered Trithiolato-Bridged Dinuclear Ruthenium(II)-Arene Compounds: Synthesis and Antiparasitic Activity” (Molecules, 2022).
Where “and” joins values, the source holds several entries; their conditions need not be identical. Identical values can stand only once.

How the values were obtained:
[1] = test system: T. gondii β-gal tachyzoites; test: Dose-response study (IC50) against T. gondii β-gal tachyzoites; type: cell-based, Toxoplasma gondii; settings: 8 serial concentrations 0.007-1 µM, 72 h
Method: (§1) The screening cascade for the compounds was described in former studies. All compounds were prepared as 1 mM stock solutions from powder, in dimethyl sulfoxide (DMSO, Sigma, St. Louis, MO, USA). For in vitro activity and cytotoxicity assays, HFF were seeded at 5 × 10^3/well and allowed to grow to confluence in phenol-red free culture medium at 37 °C and 5% CO2. T. gondii tachyzoites were released from host cells, and HFF monolayers were infected with freshly isolated parasites (1 × 10^3/well), and compounds were added concomitantly with infection.
For the dose-response study (IC50 values), measurements for T. gondii β-gal were performed. The selected compounds were added concomitantly with infection in 8 serial concentrations 0.007, 0.01, 0.03, 0.06, 0.12, 0.25, 0.5, and 1 μM.
(§2) To measure the activity of the tested compound on T. gondii β-gal parasites, after a period of 72 h of culture at 37 °C/5% CO2, the culture medium was aspirated, and cells were permeabilized by adding 90 μL PBS (phosphate buffered saline) with 0.05% Triton X-100. Next, 10 μL of 5 mM chlorophenolred-β-D-galactopyranoside (CPRG; Roche Diagnostics, Rotkreuz, Switzerland, substrate for the β-galactosidase) in PBS were added. Release of chlorophenol red was measured at 570 nm using an EnSpire® multimode plate reader (PerkinElmer, Inc., Waltham, MA, USA). A 100% proliferation of T. gondii β-gal was assigned to control parasites treated only with DMSO. For the primary screening at 0.1 and 1 μM, the activity was measured as the release of chlorophenol red over time and was calculated as percentage from the respective DMSO treated control, which represented 100% of T. gondii β-gal growth.
For the IC50 assays, the activity measured as the release of chlorophenol red over time was proportional to the number of live parasites down to 50 per well as determined in pilot assays. IC50 values were calculated after the logit-log-transformation of relative growth and subsequent regression analysis. All calculations were performed using the corresponding software tool contained in the Excel software package (Microsoft, Redmond, WA, USA).

[2] = test system: human foreskin fibroblasts (HFF); test: Cytotoxicity in non-infected HFF by alamarBlue assay; type: cell-based
Method: as §1
Cytotoxicity assays using uninfected confluent HFF host cells were performed by the alamarBlue assay as previously reported. Confluent HFF monolayers in 96 well-plates were exposed to 0.1, 1, and 2.5 μM of each compound. Non-treated HFF as well as DMSO controls (0.01%, 0.1%, and 0.25%) were included. After 72 h of incubation at 37 °C/5% CO2, the medium was removed, and the plates were washed once with PBS. Resazurin suspended in PBS to a final concentration of 0.01 g/L was added to each well (200 μL/well). Fluorescence was measured at excitation wavelength 530 nm and emission wavelength […] using an EnSpire® multimode plate reader (PerkinElmer, Inc, Waltham, MA, USA). The cytotoxicity values were calculated as percentage of the respective DMSO control, which represented 100% of HFF viability.

[3] = test system: T. gondii β-gal tachyzoites; test: Primary screening: T. gondii β-gal proliferation in HFF monolayers at 0.1 and 1 µM (CPRG readout); type: cell-based, Toxoplasma gondii; settings: tachyzoites cultured in HFF, 72 h, relative to DMSO control
Method: as §1
In the primary screening, HFF monolayers infected with T. gondii β-gal were treated with 0.1 and 1 µM of each compound, or the corresponding concentration of DMSO (0.01 or 0.1%, respectively) as controls and were incubated for 72 h at 37 °C/5% CO2 as previously described.
as §2

[4] = 0.1 µM, non-infected HFF, 72 h, relative to DMSO control, triplicate
[5] = 2.5 µM, control 0.25% DMSO = 100%, six replicates
[6] = 1 µM, non-infected HFF, 72 h, relative to DMSO control, triplicate

Row | SMILES | IC50 [1] [µM] | HFF Viability (%) [2, 4] [%] | HFF Viability (%) [2, 5] | T. gondii β-gal Growth (%) ([3]; 0.1 µM) | HFF Viability (%) ([2]; 0.1 µM) | HFF Viability (%) ([2]; 1 µM) | HFF Viability (%) ([2]; 2.5 µM) | T. gondii β-gal Growth (%) ([3]; 1 µM) | HFF Viability (%) [2, 6] [%]
1 | CC(C)(C)c1ccc(C[S]2[Ru]3[S](Cc4ccc(C(C)(C)C)cc4)[Ru+]2[S]3c2ccc(-n3cc(Cn4ccc(=O)[nH]c4=O)nn3)cc2)cc1.Cc1ccc(C(C)C)cc1.Cc1ccc(C(C)C)cc1.[Cl-] [Compound 23] | 0.426 | 100 ± 1 | 64% | – | – | – | – | – | –
2 | CC(C)(C)c1ccc(C[S]2[Ru]3[S](Cc4ccc(C(C)(C)C)cc4)[Ru+]2[S]3c2ccc(-n3cc(Cn4ccc(N)nc4=O)nn3)cc2)cc1.Cc1ccc(C(C)C)cc1.Cc1ccc(C(C)C)cc1.[Cl-] [Compound 25] | – | – | – | 82 ± 6 | 94 ± 9 | 91 ± 8 | – | – | –
3 | CC(C)(C)c1ccc(C[S]2[Ru]3[S](Cc4ccc(C(C)(C)C)cc4)[Ru+]2[S]3c2ccc(-n3cc(Cn4cnc5c(N)ncnc54)nn3)cc2)cc1.Cc1ccc(C(C)C)cc1.Cc1ccc(C(C)C)cc1.[Cl-] [Compound 26] | 0.178 | – | – | 109 ± 6 | 109 ± 2 | 76 ± 0 | 45 | – | –
4 | NC(=O)c1ccc(-c2cn(Cc3cc(=O)[nH]c(=O)[nH]3)nn2)cc1 [Compound 29] | – | – | – | – | 101 ± 1 | – | – | – | –
5 | CC(C)(C)c1ccc(C[S]2[Ru]3[S](Cc4ccc(C(C)(C)C)cc4)[Ru+]2[S]3c2ccc(CC(=O)OCc3cn(Cc4cc(=O)[nH]c(=O)[nH]4)nn3)cc2)cc1.Cc1ccc(C(C)C)cc1.Cc1ccc(C(C)C)cc1.[Cl-] [Compound 30] | 0.659 | 114 ± 0 | 97% | – | – | – | – | – | –
6 | CC(C)(C)c1ccc(C[S]2[Ru]3[S](Cc4ccc(C(C)(C)C)cc4)[Ru+]2[S]3c2ccc(CC(=O)NCc3cn(Cc4cc(=O)[nH]c(=O)[nH]4)nn3)cc2)cc1.Cc1ccc(C(C)C)cc1.Cc1ccc(C(C)C)cc1.[Cl-] [Compound 31] | – | – | – | – | 99 ± 3 | – | – | – | –
7 | CC(C)(C)c1ccc(C[S]2[Ru]3[S](Cc4ccc(C(C)(C)C)cc4)[Ru+]2[S]3c2ccccc2Cn2cc(-c3ccccc3)nn2)cc1.Cc1ccc(C(C)C)cc1.Cc1ccc(C(C)C)cc1.[Cl-] [Compound 34] | 0.092 | 96 ± 1 | highly toxic and 3% | 7 ± 0 | – | – | – | 1 ± 0 | 70 ± 1
8 | CC(C)(C)c1ccc(C[S]2[Ru]3[S](Cc4ccc(C(C)(C)C)cc4)[Ru+]2[S]3c2ccccc2Cn2cc(-c3ccc(CO)cc3)nn2)cc1.Cc1ccc(C(C)C)cc1.Cc1ccc(C(C)C)cc1.[Cl-] [Compound 35] | – | – | – | 1 ± 0 | 89 ± 0 | – | – | 0 ± 0 | –
9 | CC(C)(C)c1ccc(C[S]2[Ru]3[S](Cc4ccc(C(C)(C)C)cc4)[Ru+]2[S]3c2ccccc2Cn2cc(CO)nn2)cc1.Cc1ccc(C(C)C)cc1.Cc1ccc(C(C)C)cc1.[Cl-] [Compound 36] | 0.111 | 115 ± 1 | low toxicity and medium toxicity and 77% | – | – | – | – | 0 ± 0 | –
10 | CC(C)(C)c1ccc(C[S]2[Ru]3[S](Cc4ccc(C(C)(C)C)cc4)[Ru+]2[S]3c2ccc(-n3cc(-c4ccccc4)nn3)cc2)cc1.Cc1ccc(C(C)C)cc1.Cc1ccc(C(C)C)cc1.[Cl-] [Compound 37] | 0.096 | 99 ± 1 | highly toxic and 17% | 13 ± 1 | – | – | – | 0 ± 0 | 71 ± 0
11 | CC(C)(C)c1ccc(C[S]2[Ru]3[S](Cc4ccc(C(C)(C)C)cc4)[Ru+]2[S]3c2ccc(-n3cc(CO)nn3)cc2)cc1.Cc1ccc(C(C)C)cc1.Cc1ccc(C(C)C)cc1.[Cl-] [Compound 38] | 0.128 | – | – | 42 ± 2 | 104 ± 1 | 71 ± 1 | 59 | 0 ± 0 | –
